The values that follow come from BindingDB's records for doi:10.1074/jbc.M113.529529 (The University of Tokyo, 2014).

What all share (experiment): β-Gal Inhibitory Assay
Common to all, as to details: pH 4.5; 37 °C

The target in test [1] is T1, Beta-galactosidase [24-677] (Human, UniProt P16278).
T1 construct: 24-677
T1 sequence (P16278 whole entry): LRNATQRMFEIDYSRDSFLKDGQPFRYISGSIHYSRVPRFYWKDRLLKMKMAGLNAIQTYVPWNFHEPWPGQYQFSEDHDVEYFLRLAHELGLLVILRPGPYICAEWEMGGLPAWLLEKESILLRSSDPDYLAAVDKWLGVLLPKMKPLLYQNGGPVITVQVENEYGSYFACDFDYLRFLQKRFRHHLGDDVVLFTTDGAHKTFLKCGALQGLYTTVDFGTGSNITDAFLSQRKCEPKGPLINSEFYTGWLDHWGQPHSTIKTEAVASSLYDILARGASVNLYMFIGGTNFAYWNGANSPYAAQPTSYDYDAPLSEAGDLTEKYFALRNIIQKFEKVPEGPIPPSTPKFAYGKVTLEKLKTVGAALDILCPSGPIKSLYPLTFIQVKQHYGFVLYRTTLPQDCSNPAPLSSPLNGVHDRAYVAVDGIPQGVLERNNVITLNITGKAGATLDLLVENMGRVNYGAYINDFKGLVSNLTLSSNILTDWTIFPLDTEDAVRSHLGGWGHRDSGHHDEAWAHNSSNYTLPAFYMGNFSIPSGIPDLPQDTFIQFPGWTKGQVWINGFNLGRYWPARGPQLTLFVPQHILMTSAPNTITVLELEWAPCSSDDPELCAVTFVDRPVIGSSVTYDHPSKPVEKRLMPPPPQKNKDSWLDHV
How it is done: (§1) β-Gal activity was measured by using 4-methylumbelliferyll-β-D-galactopyranoside in buffer B (0.15 M sodium citrate, pH 4.5, and 0.2 M NaCl) as a substrate, and incubating at 37 °C for 6 min.

In test [2] the target is T2, Beta-galactosidase [24-677,I51T] (Human, UniProt P16278, I51T).
T2 construct: 24-677
How it is done:
as §1

For test [3], the target named is T3, Beta-galactosidase [24-677,R201C] (Human, UniProt P16278, R201C).
T3 construct: 24-677
How it is done: as §1

pKi: −log10 of the molar value.

A word on the pKi: it is the Ki on a negative log10 scale, so that one unit is a factor of ten. On to `CCCC/N=C1\SC[C@@H]2[C@H](O)[C@H](O)[C@@H](O)CN12` [5N,6S-(N'-butyliminomethylidene)-6-thio-1-deoxygalactonojirimycin], for which the pKi was 4.17 in test [1], 4.16 in test [2] and 4.27 in test [3].

For `CCCC/N=C1/SCC2[C@H](O)[C@H](O)C(O)[C@@H](O)N12` (stereo partly drawn) [5N,6S-(N'-butyliminomethylidene)-6-thiogalactonojirimycin], the pKi in test [1] is 3.60; in test [2], 3.50; in test [3], 3.49.

Regarding `OC[C@H]1OC(O)[C@H](O)[C@@H](O)[C@H]1O` (stereo not given in full) [Galactose], the results for the pKi in test [1], in test [2] and in test [3] were 2.38, 2.31 and 2.25, respectively.

With `CCCCNC(=S)N1CC(O)[C@@H](O)[C@@H](O)C1CO` (stereo not given in full) [N-(N'-butylthiocarbamoyl)-1-deoxygalactonojirimycin], the pKi in test [1] was 3.43; in test [2] it was 3.48; in test [3] it was 3.41.

In the case of `CCCCCCCCN[C@H]1C=C(CO)[C@@H](O)[C@H](O)[C@H]1O` [NOEV], the negative logarithm of the Ki (pKi) in test [1] was 5.96; in test [2], 5.92; in test [3], 6.03.
